Measured values published in PMC5412877, “Discovery of a PCAF Bromodomain Chemical Probe” (Angewandte Chemie (International Ed. in English), 2016).
Read-outs that look alike come from different tables or passages of the source.

Columns and labels:
[1] = target: T1, PCAF Brd (Homo sapiens, UniProt Q92831); assay: Differential scanning fluorimetry (DSF), PCAF Brd; type: binding; details: compound concentration 10 μM
T1 construct: Human bromodomains were cloned, expressed and purified as previously described; made in house
T1 sequence (Q92831 723-827 limits assumed): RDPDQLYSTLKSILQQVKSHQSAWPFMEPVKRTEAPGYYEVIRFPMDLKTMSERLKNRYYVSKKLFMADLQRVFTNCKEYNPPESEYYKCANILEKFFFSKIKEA
Method: (§1) Protein Expression and Purification
(§2) Human bromodomains were cloned, expressed and purified as previously described.[1]
(§3) Differential Scanning Fluorimetry (DSF)
(§4) Thermal melting points were recorded using an Mx3005p Real Time PCR Machine (Stratagene).
(§5) Subject proteins were buffered in 10 mM HEPES at pH 7.5, 500 mM NaCl and assayed in a 96-well […]
(§6) plate at a final concentration of 2 μM in 20 μL volume. Compounds were then added to a final […]
(§7) concentration of 10 μM. SPYRO Orange (Molecular Probes) was used as a fluorescent probe at a […]
(§8) dilution of 1:1000. Excitation and emission filters for the SPYRO-Orange dye were set to 465 nm and […]
(§9) 590 nm, respectively. The temperature was raised with a step of 3 °C/min from 25 °C to 96 °C and […]
(§10) fluorescence readings were taken at each interval. Data was analysed as previously described.[2]
(§11) Bromodomain affinity selectivity panel of (S)-11
(§12) Supplemental Figure 1. DSF Selectivity panel of (S)-11 against 48 human Bromodomains. […]
(§13) ┼Mean ΔTm ± SEM (number of measurements= 2). Compound concentration: 10 μM […]
(§14) (1 picture or pasted object on this page, not shown here)

[2] = target: T2, GCN5L2 (Homo sapiens, UniProt Q92830); assay: Differential scanning fluorimetry (DSF), GCN5 (GCN5L2) Brd; type: binding; details: compound 10 μM; for ΔTm at 10 µM: read-out: GCN5L2 ΔTm (°C) (DSF)
T2 construct: made in house
T2 sequence (Q92830 728-832 limits assumed): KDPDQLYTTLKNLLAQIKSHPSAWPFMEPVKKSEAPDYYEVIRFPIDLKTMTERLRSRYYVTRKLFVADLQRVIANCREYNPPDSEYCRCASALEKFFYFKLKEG
Method: as §1, §2, §3, §4, §5, §6, §7, §8, §9, §10, §11, §12, §13, §14

[3] = target: T1, PCAF Brd; assay: Isothermal titration calorimetry (ITC), PCAF Brd; type: binding
Method: Isothermal Titration Calorimetry (ITC)
Experiments were carried out on a Nano-ITC Standard Volume Instrument (TA Instruments). All experiments were carried out at 25 °C in 20 mM HEPES pH 7.5, 150 mM NaCl, 0.5 mM TCEP and 5% glycerol. Protein solutions were buffer exchanged by gel filtration. The titrations were conducted using an initial injection of 2 μL followed by 32 injections of 8 μL. Background dilution heat was substracted from each experiment. Thermodynamic parameters were calculated using ΔG = ΔH-T ΔS = -RTlnKB , where KD = 1/KB. ΔG, ΔH and ΔS are changes in free energy, enathalpy and entropy resepectively. Independent single site binding models were employed in data analysis.
Supplemental Figure 3. ITC trace of D-Moses and PCAF Brd […]

[4] = Metabolic stability in mouse liver microsomes; type: in vitro ADME
Method: (§15) In vitro Metabolism Studies
(§16) Metabolic stability studies were carried out exposing nominated compounds to samples of liver microsomes. Compounds were analysed by LC-MS for loss of compound at 0, 5, 15, 30 and 45 minute time points. The rate of metabolic degradation of compounds was used to calculate CLint, SE CLint, t1/2 (summarised in supplemental table 2.)
(§17) Supplemental Table 4. In vitro metabolic stability of compounds DL-45/DL-Moses and 39 Compound Metbolic Stability (Human) Metbolic Stability (Mouse) […]

[5] = Metabolic stability in human liver microsomes; type: in vitro ADME
Method: as §15, §16, §17

[6] = system: HIV‐1; details: ref 8c; read-out: HIV-1 EC50 (disrupting HIV‐1 replication); cited from earlier work
[7] = Supplemental Table 3, compound concentration 30 μM, protein concentration 280-320 μM, read-out: PCAF KD (μM) (ITC)
[8] = Table 2, read-out: K D (nM) (ITC) PCAF Brd

| Compound | ΔT m [°C] PCAF (DSF) [1] [°C] | Kd [3, 7] [µM] | ΔTm at 10 µM [2] [°C] | further results |
| --- | --- | --- | --- | --- |
| Cc1nnc2c3ccccc3c(N[C@H]3CCCC[C@@H]3N(C)C)nn12 [Compound 66] | 0.6 | > 30 | – | GCN5L2 ΔTm (°C) (DSF) [2]: 0.1 °C |
| CCN(CC)CC(C)Nc1nn2c(C(F)(F)F)nnc2c2ccccc12 (stereo not drawn) [Compound 90] | 0.4 | > 30 | – | GCN5L2 ΔTm (°C) (DSF) [2]: 0.1 °C |
| CCC(CN(C)C)Nc1nn2c(C)nnc2c2ccccc12 (stereo not drawn) [Compound 12] | 3.3 | 1.76 | 1.1 | Kd ([3]; Table 1, read-out: K D [μM] (ITC) PCAF Brd): 1.8 ± 0.23 µM |
| Cc1nnc2c3ccccc3c(N[C@@H](C)[C@H](c3ccc(F)cc3)N(C)C)nn12 (relative stereo) [Compound 39] | 8.3 | – | 4.4 | microsomal CLint ([4]; mouse liver microsomes, n 5, read-out: CLint (μL/min/mg protein) mouse): 21 µL/min/mg; half-life ([4]; mouse, liver microsomes, read-out: t1/2 mouse liver microsomes): 65 min; microsomal CLint ([5]; human liver microsomes, n 5, read-out: CLint (μL/min/mg protein) human): 29 µL/min/mg; half-life ([5]; human, liver microsomes, read-out: t1/2 human liver microsomes): 48 min; Kd [3, 8]: 0.195 ± 0.023 µM |
| Cc1nnc2c3ccccc3c(NC(C)CN3CCC(C)CC3)nn12 (stereo not drawn) [Compound 70] | 0 | > 30 | 0.1 | – |
| Cc1ccc(NCCCN)c([N+](=O)[O-])c1 [Compound 1] | – | – | – | EC50 [6]: 2800 nM |
| Cc1ccc([C@@H]([C@H](C)Nc2nn3c(C)nnc3c3ccccc23)N(C)C)cc1 (relative stereo) [Compound 41] | 7.8 | – | 4.3 | Kd [3, 8]: 0.16 ± 0.054 µM |
| Cc1nnc2c3ccccc3c(N[C@H]3CCC[C@@H]3N(C)C)nn12 [Compound 76] | 7.3 | 0.168 | 2.4 | – |
